This note sets out measurements from patent US5057512A, “3-amino-2-oxo-azetidine-1-sulfonic acids” (Uclaf; Roussel, priority 1981, dated 1991).

Some results are limits rather than exact numbers.

Experiment in all cases: M.I.C., dilutions in liquid medium
Holding throughout (format): cell-based

One experiment has as its system Enterobacter Cloacae 681. The conditions noted are these: 37° C. As to the method:
(§1) A. Activity in Vitro-Method of Dilutions in Liquid Medium
(§2) A series of tubes was prepared in which the same amount of sterile nutritive medium was distributed and there was distributed in each tube increasing amounts of the test product. Then, each tube was inoculated with a bacterial strain and after incubation for twenty-four or forty-eight hours in an oven at 37° C., the inhibition of the growth was evaluated by trans-illumination to determine the minimum inhibiting concentrations (M.I.C.), expressed in μg/ml.

For experiment [1], the system named is Escherichia Coli Resistant to Gentamycine Tobramycine R55 123 D. As to conditions: 37° C. Here is the method: as §1, §2
For experiment [2], the system named is Escherichia Coli Resistant to Tetracycline AT CC 11 303. The conditions noted are these: 37° C. Here is the method: as §1, §2
For experiment [3], the system named is Escherichia Coli Sensitive to Tetracycline 7624. The conditions noted are these: 37° C. As to the method: as §1, §2
For experiment [4], the system named is Klebsiella Pneumoniae 2536 Resistant Gentamycine. The conditions noted are these: 37° C. As to the method:
as §1, §2

Experiment [5] deals with Klebsiella Pneumoniae Exp. 52145. The conditions noted are these: 37° C.; for MIC: Klebsiella pneumoniae. As to the method:
as §1, §2

In experiment [6] the test system is Proteus mirabilis (indol -) A 235. As to conditions: 37° C.; for MIC: Proteus mirabilis. As to the method: as §1, §2
In experiment [7] the test system is Proteus vulgaris (indol +) A 232. As to conditions: 37° C.; for MIC: Proteus vulgaris. Here is the method:
as §1, §2

A further experiment concerns Providencia Du 48. The conditions noted are these: 37° C.; for MIC: Providencia, DU48. Here is the method:
as §1, §2

Experiment [8] relates to Salmonella typhimurium 420. The conditions noted are these: Salmonella enterica, 37° C. Here is the method:
as §1, §2

For experiment [9], the system named is Serratia Resistant to Gentamycine 2 532. The conditions noted are these: 37° C.; for MIC: Serratia. Here is the method:
as §1, §2

The test system of experiment [10] is Enterobacter cloacae 1321 E. The conditions noted are these: 24 H, 37° C. Here is the method: as §1, §2
The next experiment relates to Escherichia coli 0 78. As to conditions: 24 H, 37° C. Here is the method:
as §1, §2

In another experiment the test system is Escherichia coli 1507 E. As to conditions: 24 H, 37° C. As to the method: as §1, §2
A further experiment concerns Escherichia coli DC 0. The conditions noted are these: 24 H, 37° C. As to the method:
as §1, §2

The test system of another experiment is Escherichia coli DC 2. The conditions noted are these: 24 H, 37° C. As to the method: as §1, §2
A further experiment deals with Escherichia coli T E M. The conditions noted are these: 24 H, 37° C. As to the method: as §1, §2
Another experiment has as its system Escherichia coli UC 1894. The conditions noted are these: 24 H, 37° C. Here is the method:
as §1, §2

For experiment [11], the system named is Klebsiella aerogenes 1082 E. As to conditions: 24 H, 37° C. Here is the method:
as §1, §2

The subject of experiment [12] is Klebsiella aerogenes 1522 E. The conditions noted are these: 24 H, 37° C. As to the method:
as §1, §2

The test system of experiment [13] is Pseudomonas aeruginosa 1771 m. The conditions noted are these: 24 H, 37° C. As to the method:
as §1, §2

In experiment [14] the test system is Salmonella typhimurium MZ 11. As to conditions: 24 H, 37° C. As to the method:
as §1, §2

Take `CON=C(C(=O)NC1C(=O)N(S(=O)(=O)O)C1CCl)c1csc(N)n1` (mixture of isomers) [Example 1, Racemate of syn isomer of cis 4-chloromethyl-3-[2-(2-amino-4-thiazolyl)-2-methoxyimino-acetamido]-2-oxoazetidine-1-sulfonic acid]: the MIC (in general, the smallest concentration in the dilution series that meets the test's criterion for growth inhibition) is 2.5 µg/mL against Enterobacter Cloacae 681 (CLOACAE681, 24 Hr.); 2.5 µg/mL against Enterobacter Cloacae 681 (CLOACAE681, 48 Hr.); 0.62 µg/mL in experiment [1] (24 Hr.); 0.62 µg/mL in [1] (48 Hr.); 0.16 µg/mL in [2] (24 Hr.); 0.16 µg/mL in experiment [2] (48 Hr.). In addition, the minimal inhibitory concentration (MIC) in experiment [3] (24 Hr.) is 1.25 µg/mL; in experiment [3] (48 Hr.), 1.25 µg/mL; in experiment [4] (24 Hr.), 2.5 µg/mL; in experiment [4] (48 Hr.) it was 2.5 µg/mL; in [5] (24 h), 1.25 µg/mL; in experiment [5] (48 h), 2.5 µg/mL. Besides, the MIC in experiment [6] (24 h) came out at 0.16 µg/mL; in experiment [6] (48 h), 0.16 µg/mL; in experiment [7] (24 Hr.), 0.08 µg/mL; in [7] (48 Hr.), 0.08 µg/mL; in the experiment on Providencia Du 48 (24 Hr.), 0.62 µg/mL; against Providencia Du 48 (48 Hr.), 0.62 µg/mL. Moreover, the minimum inhibitory concentration (MIC) in experiment [8] (24 Hr.) came out at 1.25 µg/mL; in [8] (48 Hr.) it was 1.25 µg/mL; in experiment [9] (24 h), 5 µg/mL; in [9] (48 h) it was 5 µg/mL.

For the compound `CON=C(C(=O)NC1C(=O)N(S(=O)(=O)O)C1CF)c1csc(N)n1` [Example 11, (3S,4S)ΔZ 4-fluoromethyl-3-[2-(2-amino-4-thiazolyl)-2-methoxyimino-acetamido]-2-oxo-azetidine-1-sulfonic acid], the M.I.C. is 0.08 µg/mL in [10]; 0.08 µg/mL in the experiment on Escherichia coli 0 78; 0.08 µg/mL with Escherichia coli 1507 E; 0.15 µg/mL in the experiment with Escherichia coli DC 0; 0.15 µg/mL in the experiment with Escherichia coli DC 2; 0.08 µg/mL with Escherichia coli T E M. In addition, the M.I.C. is at most 0.04 µg/mL with Escherichia coli UC 1894; 0.08 µg/mL in experiment [5] (24 Hr.); 10 µg/mL in experiment [11]; 0.08 µg/mL in [12]; 0.15 µg/mL in [6] (24 Hr.); at most 0.04 µg/mL in experiment [7] (24 Hr.). In addition, the M.I.C. in the experiment with Providencia Du 48 (24 Hr.) is 0.3 µg/mL; in experiment [13], 0.6 µg/mL; in experiment [14], at most 0.04 µg/mL; in experiment [9] (24 Hr.) it was 2.5 µg/mL.
